Assay results as given in PubChem BioAssay AID328 (DTP/NCI, 2004).
Values joined by “and” are separate entries in the source; they are usually repeats but may differ in a detail not shown here. Identical values can stand only once. Inconclusive results and toxic doses are left out. How the source made its calls: active means survival T/C of 150% or more; inactive means T/C below 125% in these data.

Test system: BDF1 mice, P388 leukemia ip, median survival T/C
Experiment: NCI In Vivo Anticancer Drug Screen. Data for tumor model P388 Leukemia (intraperitoneal) in B6D2F1 (BDF1) mice
Conditions: endpoint: median survival time, higher = longer survival
Procedure, shortened: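 Vehicle-dosed animals serve as the reference; survival of compound-dosed, tumour-implanted mice is divided by it.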

[1] = dose: 100.0 mg/kg/injection, schedule: Q04DX003 (ip), vehicle: saline
[2] = dose: 200.0 mg/kg/injection, schedule: Q04DX003 (ip), vehicle: saline
[3] = dose: 400.0 mg/kg/injection, schedule: Q04DX003 (ip), vehicle: saline
[4] = dose: 100.0 mg/kg/injection, schedule: Q04DX003 (ip), vehicle: saline with Tween-80
[5] = dose: 200.0 mg/kg/injection, schedule: Q01DX009 (ip), vehicle: saline with Tween-80
[6] = dose: 200.0 mg/kg/injection, schedule: Q04DX003 (ip), vehicle: saline with Tween-80
[7] = dose: 400.0 mg/kg/injection, schedule: Q01DX009 (ip), vehicle: saline with Tween-80
[8] = dose: 400.0 mg/kg/injection, schedule: Q04DX003 (ip), vehicle: saline with Tween-80
[9] = dose: 12.5 mg/kg/injection, schedule: Q01DX009 (ip), vehicle: saline with Tween-80
[10] = dose: 25.0 mg/kg/injection, schedule: Q01DX009 (ip), vehicle: saline with Tween-80
[11] = dose: 100.0 mg/kg/injection, schedule: Q01DX009 (ip), vehicle: saline
[12] = dose: 50.0 mg/kg/injection, schedule: Q01DX009 (ip), vehicle: saline with Tween-80
[13] = dose: 100.0 mg/kg/injection, schedule: Q01DX009 (ip), vehicle: saline with Tween-80
[14] = dose: 12.5 mg/kg/injection, schedule: Q04DX003 (ip), vehicle: saline

Measured: T/C

CC12CC3(O)CCC1CCC2C(=O)C3 (configuration not stated)
inactive: [1] 118 % of control | [2] 109 % of control | [3] 122 % of control

CC(=O)[C@@]1(O)CC[C@H]2[C@@H]3C[C@H](C)C4=CC(=O)CC[C@]4(C)[C@H]3[C@@H](O)C[C@@]21C
inactive: [4] 109 % of control | [5] 122 % of control | [6] 109 % of control | [7] 90 % of control | [8] 118 % of control

C/C=C/C(=O)NCC(C(C)C)/[N+]([O-])=N/O (configuration not stated)
inactive: dose: 6.25 mg/kg/injection, schedule: Q01DX009 (ip), vehicle: saline with Tween-80 104 % of control | [9] 116 % of control | [10] 87 % of control

OC(c1ccc(Cl)cc1)C1CCNCC1 (configuration not stated)
inactive: dose: 50.0 mg/kg/injection, schedule: Q01DX009 (ip), vehicle: saline 90 % of control | [11] 102 % of control

O=C(Nc1cccc2ccccc12)C(F)(F)F
inactive: [9] 109 % of control | [10] 104 % of control | dose: 25.0 mg/kg/injection, schedule: Q04DX003 (ip), vehicle: saline with Tween-80 91 % of control | [12] 100 % of control | dose: 50.0 mg/kg/injection, schedule: Q04DX003 (ip), vehicle: saline with Tween-80 99 % of control | [13] 118 % of control | [4] 90 % of control and 103 % of control

CC(C)CNC(=O)C12CC3CC(CC(C3)C1)C2
inactive: [9] 104 % of control | [10] 107 % of control | [12] 104 % of control | [13] 101 % of control

N#Cc1nc(C#N)c(Sc2ccccc2)c(Sc2ccccc2)c1Sc1ccccc1
inactive: [9] 101 % of control and 110 % of control | [10] 100 % of control and 103 % of control | [12] 121 % of control and 122 % of control

c1cc(CC2CO2)c2c(c1CC1CO1)OCCOCCOCCOCCO2 (configuration not stated)
inactive: dose: 15.0 mg/kg/injection, schedule: Q01DX009 (ip), vehicle: saline + alcohol 100 % of control | dose: 30.0 mg/kg/injection, schedule: Q01DX009 (ip), vehicle: saline + alcohol 106 % of control | dose: 60.0 mg/kg/injection, schedule: Q01DX009 (ip), vehicle: saline + alcohol 109 % of control | dose: 120.0 mg/kg/injection, schedule: Q01DX009 (ip), vehicle: saline + alcohol 111 % of control

COc1ccc2cc1Oc1ccc(cc1)C[C@H]1c3cc(c(OC)cc3CCN1C)Oc1c(OC)c(OC)cc3c1[C@H](C2)N(C)CC3
inactive: [14] 105 % of control | dose: 25.0 mg/kg/injection, schedule: Q04DX003 (ip), vehicle: saline 90 % of control | dose: 50.0 mg/kg/injection, schedule: Q04DX003 (ip), vehicle: saline 110 % of control | [1] 110 % of control

c1ccc(-c2ncnc3c2Cc2ccccc2-3)cc1
inactive: [13] 104 % of control | [4] 100 % of control | [5] 104 % of control | [6] 100 % of control | [7] 91 % of control | [8] 109 % of control

N#CCCN1c2ccccc2Sc2ccccc21
inactive: dose: 50.0 mg/kg/injection, schedule: Q01DX009 (ip), vehicle: Klucel (hydroxypropylcellulose) (HPC) 110 % of control | dose: 100.0 mg/kg/injection, schedule: Q01DX009 (ip), vehicle: Klucel (hydroxypropylcellulose) (HPC) 105 % of control | dose: 200.0 mg/kg/injection, schedule: Q01DX009 (ip), vehicle: Klucel (hydroxypropylcellulose) (HPC) 110 % of control

CS(=O)(=O)OCCF
inactive: dose: 1.5 mg/kg/injection, schedule: Q01DX009 (ip), vehicle: saline with Tween-80 100 % of control | dose: 1.5 mg/kg/injection, schedule: Q04DX003 (ip), vehicle: saline 104 % of control | dose: 3.0 mg/kg/injection, schedule: Q01DX009 (ip), vehicle: saline with Tween-80 100 % of control | dose: 3.0 mg/kg/injection, schedule: Q04DX003 (ip), vehicle: saline 109 % of control

FC(F)(F)c1ccc2c(c1)N(CCCN1CCN(CCOCCCl)CC1)c1ccccc1S2
inactive: [14] 107 % of control

BrC1C2CC(c3ccccc32)C1Br (configuration not stated)
inactive: dose: 100.0 mg/kg/injection, schedule: Q01DX001 (ip), vehicle: saline 109 % of control | [11] 100 % of control | [1] 100 % of control | dose: 200.0 mg/kg/injection, schedule: Q01DX001 (ip), vehicle: saline 104 % of control | dose: 200.0 mg/kg/injection, schedule: Q01DX009 (ip), vehicle: saline 104 % of control | [2] 91 % of control | dose: 400.0 mg/kg/injection, schedule: Q01DX001 (ip), vehicle: saline 100 % of control | dose: 400.0 mg/kg/injection, schedule: Q01DX009 (ip), vehicle: saline 109 % of control | [3] 104 % of control

CCOC(=O)/C(N=O)=C(\O)c1ccc2ccccc2n1
inactive: dose: 3.12 mg/kg/injection, schedule: Q01DX009 (ip), vehicle: water 106 % of control | dose: 6.25 mg/kg/injection, schedule: Q01DX009 (ip), vehicle: water 98 % of control and 99 % of control and 103 % of control | dose: 12.5 mg/kg/injection, schedule: Q01DX009 (ip), vehicle: water 111 % of control and 123 % of control | dose: 25.0 mg/kg/injection, schedule: Q01DX009 (ip), vehicle: water 94 % of control and 104 % of control and 106 % of control | dose: 25.0 mg/kg/injection, schedule: Q04DX003 (ip), vehicle: water 97 % of control | dose: 50.0 mg/kg/injection, schedule: Q01DX009 (ip), vehicle: water 100 % of control and 103 % of control | dose: 50.0 mg/kg/injection, schedule: Q04DX003 (ip), vehicle: water 120 % of control | dose: 100.0 mg/kg/injection, schedule: Q01DX009 (ip), vehicle: water 99 % of control | dose: 100.0 mg/kg/injection, schedule: Q04DX003 (ip), vehicle: water 105 % of control | dose: 200.0 mg/kg/injection, schedule: Q01DX009 (ip), vehicle: water 91 % of control | dose: 200.0 mg/kg/injection, schedule: Q04DX003 (ip), vehicle: water 97 % of control | dose: 400.0 mg/kg/injection, schedule: Q01DX009 (ip), vehicle: water 110 % of control | dose: 400.0 mg/kg/injection, schedule: Q04DX003 (ip), vehicle: water 92 % of control

Nc1cccc2c1C(=O)C=CC2=O
inactive: dose: 1.15 mg/kg/injection, schedule: Q01DX009 (ip), vehicle: saline 112 % of control | dose: 2.3 mg/kg/injection, schedule: Q01DX009 (ip), vehicle: saline 108 % of control | dose: 3.25 mg/kg/injection, schedule: Q04DX003 (ip), vehicle: saline 121 % of control | dose: 4.6 mg/kg/injection, schedule: Q01DX009 (ip), vehicle: saline 108 % of control

CC[n+]1c(-c2ccccc2)c2cc(N)ccc2c2ccc(N)cc21 (tested in a mixture with another compound)
inactive: dose: 25.0 mg/kg/injection, schedule: Q01DX009 (ip), vehicle: other 112 % of control | dose: 50.0 mg/kg/injection, schedule: Q01DX009 (ip), vehicle: other 112 % of control

CCOc1ccc(/C=N/NS(=O)(=O)c2ccccc2)cc1OC
inactive: [5] 105 % of control | [7] 100 % of control

O=C(O)/C(Cc1cnc2ccccc2n1)=N\O
inactive: [4] 95 % of control | [6] 100 % of control | [8] 91 % of control
